Assay [1] concerns the target T1, E. coli alkaline phosphatase, native (strain CW3747) (Escherichia coli, UniProt P00634).
T1 construct: The monomer is an unglycosylated single chain of 449 amino acids in its mature form; made in house; host or cells: E. coli strain CW3747 (ATCC 27256), enzyme isolated by the method of Applebury et al. 1970
In words: Kinetic constants, hydrolysis of PNPP to p-nitrophenol. Format: biochemical. Particulars: native enzyme, 1M Tris HCl.
Protocol: B, Native alkaline phosphatase, [K2 HPO4 ]-0 (0), 1×10^-5 M ( ), 3×10^-5 M (Δ). The enzyme was assayed as described under "Materials and Methods" in Example I except that the assay solution contained K2 HPO4 at the indicated concentration and PNPP at concentrations ranging from 5×10^-6 to 1×10^-3 M.
Enzyme and Chemicals - Alkaline phosphatase was isolated from E. coli strain CW3747 (A.T.C.C. 27256) according to the method described by Applebury et al. (Applebury, M. L. et al. J. Biol. Chem. 245: 4968 (1970)). Enzyme concentrations were determined spectrophotometrically at 278 nm using E1 cm^0.1% =0.72. Molar calculations were based on Mr =94,000. The enzyme activity was assayed as the rate of hydrolysis of PNPP^1 to p-nitrophenol. The reaction was monitored by following the increase in absorbance at 410 nm (Δε=1.62×10^4M^-1 cm^-1) in a solution of 1×10^-3 M PNPP, 1M Tris HCl, 10 mM MgCl2, 5×10^-5 M ZnCl2, pH 8.0, 20° C.

Assay [2] deals with T2, E. coli alkaline phosphatase, trypsin-modified (tm-AP; NH2-terminal 10 or 11 amino acids removed, cleaved at Arg-10 Ala-11) (Escherichia coli, UniProt P00634).
T2 construct: trypsin cleaves the Arg-10 Ala-11 bond leaving Ala as the NH2 -terminal residue; made in house; host or cells: E. coli strain CW3747 enzyme treated with trypsin, purified by chromatofocusing
T2 sequence (P00634 33-471): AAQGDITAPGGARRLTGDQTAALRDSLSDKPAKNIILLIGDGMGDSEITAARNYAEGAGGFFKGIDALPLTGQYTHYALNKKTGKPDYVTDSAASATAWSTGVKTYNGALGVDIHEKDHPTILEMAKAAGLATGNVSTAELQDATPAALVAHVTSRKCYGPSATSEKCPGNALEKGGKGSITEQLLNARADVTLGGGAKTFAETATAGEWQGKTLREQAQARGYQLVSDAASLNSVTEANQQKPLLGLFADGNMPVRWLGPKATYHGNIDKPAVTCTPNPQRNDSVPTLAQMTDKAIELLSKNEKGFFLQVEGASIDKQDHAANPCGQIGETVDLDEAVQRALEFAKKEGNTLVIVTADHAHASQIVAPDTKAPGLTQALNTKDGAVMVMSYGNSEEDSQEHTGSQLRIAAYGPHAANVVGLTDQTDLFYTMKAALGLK
Described as above. Format: biochemical. Particulars: trypsin-modified enzyme, 1M Tris HCl.
Protocol: The enzyme was assayed as described under "Materials and Methods" in Example I except that the assay solution contained K2 HPO4 at the indicated concentration and PNPP at concentrations ranging from 5×10^-6 to 1×10^-3 M.
Enzyme and Chemicals - Alkaline phosphatase was isolated from E. coli strain CW3747 (A.T.C.C. 27256) according to the method described by Applebury et al. (Applebury, M. L. et al. J. Biol. Chem. 245: 4968 (1970)). Enzyme concentrations were determined spectrophotometrically at 278 nm using E1 cm^0.1% =0.72. Molar calculations were based on Mr =94,000. The enzyme activity was assayed as the rate of hydrolysis of PNPP^1 to p-nitrophenol. The reaction was monitored by following the increase in absorbance at 410 nm (Δε=1.62×10^4M^-1 cm^-1) in a solution of 1×10^-3 M PNPP, 1M Tris HCl, 10 mM MgCl2, 5×10^-5 M ZnCl2, pH 8.0, 20° C. […] Trypsin, PNPP, and carboxypeptidase Y were obtained from Sigma. […] All other chemicals employed were reagent grade.
To prepare trypsin-modified alkaline phosphatase, native alkaline phosphatase (3 mg/ml) was treated with 10% (w/w) trypsin for 60 min at 20° C. and the major protein peak was isolated using the above chromatofocusing procedure.

The mark [3] stands for this setting: 10 mM MgCl2, 5×10^-5 M ZnCl2, pH 8.0, 20° C, PNPP 5×10^-6 to 1×10^-3 M.

The values below come from patent US4656128A, “Modified alkaline phosphatase” (Research Corporation, priority 1985, dated 1987).

The structures appear in SMILES notation.

T1 sequence (P00634 23-471): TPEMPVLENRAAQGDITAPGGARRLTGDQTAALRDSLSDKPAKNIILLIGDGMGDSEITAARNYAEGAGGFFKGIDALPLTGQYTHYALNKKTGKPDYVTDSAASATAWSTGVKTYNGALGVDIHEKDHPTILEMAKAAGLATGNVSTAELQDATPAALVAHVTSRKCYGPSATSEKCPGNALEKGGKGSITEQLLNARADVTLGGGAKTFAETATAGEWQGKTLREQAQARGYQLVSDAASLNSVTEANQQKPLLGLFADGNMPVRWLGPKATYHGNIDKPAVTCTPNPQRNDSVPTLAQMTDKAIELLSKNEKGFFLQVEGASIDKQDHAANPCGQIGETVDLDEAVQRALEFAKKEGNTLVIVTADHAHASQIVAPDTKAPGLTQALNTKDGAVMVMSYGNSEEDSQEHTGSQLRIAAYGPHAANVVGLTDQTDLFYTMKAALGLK

With `O=[N+]([O-])c1ccc(OP(=O)(O)O)cc1` [PNPP, p-nitrophenolphosphate], the Michaelis-Menten constant (Km) – broadly, the concentration of substrate that gives half-maximal velocity – in assay [1] (setting [3]) worked out at 40 µM; in assay [2] (setting [3]), 19 µM. Also, the “Vmax (PNPP)” value in assay [1] (pH 8.0, 20° C) turned out to be 2500 µmol/h/mg; in assay [2] (pH 8.0, 20° C), 2000 µmol/h/mg.
